Results: ChEMBL document CHEMBL4411307, “N,N'-diaryl-bishydrazones in a biphenyl platform: Broad spectrum antifungal agents” (Eur J Med Chem, 2019)
Values after ≈ are worked out from the molar mass of the structure shown. Active and inactive are the calls of the source. No cut-off for these calls is given here.

Key:
[1] = system: Candida albicans; assay: Selectivity ratio of MIC90 for antibiofilm activity against fluconazole/ITC-resistant Candida albicans ATCC 10231 assessed as reduction in sessile growth to MIC for fluconazole/ITC-resistant Candida albicans ATCC 10231; format: functional
[2] = system: Candida albicans; assay: Antifungal activity against fluconazole/ITC-resistant Candida albicans ATCC MYA-1003 measured after 48 hrs by CLSI M27-A3 protocol based method; format: functional; conditions: ATCC MYA-1003, 48 h
[3] = target: Voltage-gated inwardly rectifying potassium channel KCNH2 (Homo sapiens, UniProt Q12809); assay: Inhibition of [3H]-dofetilide binding to human ERG expressed in HEK293 cell membranes measured after 1 hr by liquid scintillation counting method
[4] = system: Enterococcus; assay: Antibacterial activity against vancomycin-resistant Enterococcus; format: functional, organism-based
[5] = Selectivity index, ratio of CC50 for human A549 cells to MIC for Aspergillus nidulans ATCC 38163; format: toxicity; conditions: read-out: Selectivity Index
[6] = system: Candida albicans; assay: Antifungal activity against fluconazole/ITC-resistant Candida albicans ATCC 64124 measured after 48 hrs by CLSI M27-A3 protocol based method; format: functional; conditions: ATCC 64124, 48 h
[7] = system: Candida albicans; assay: Fungicidal activity against fluconazole/ITC-resistant Candida albicans ATCC 64124 assessed as reduction in fungal growth at 0.5 to 2 times MIC incubated for 24 hrs followed by replating on PDA plates measured after 48 hrs Time-Kill assay; format: functional, organism-based
[8] = Selectivity index, ratio of compound concentration showing <20 to <30% hemolysis in mouse RBC to MIC for fluconazole/ITC-susceptible Candida albicans ATCC MYA-2876; format: toxicity; conditions: red blood cells (erythrocytes), read-out: Selectivity Index
[9] = Hemolytic activity in mouse RBC at […] ug/ml after 1 hr relative to control; format: ADME, cell-based, Erythrocyte; conditions: red blood cells (erythrocytes), read-out: Activity
[10] = Selectivity index, ratio of CC50 for human A549 cells to MIC for Candida krusei ATCC 6258; format: toxicity; conditions: read-out: Selectivity Index
[11] = Selectivity index, ratio of compound concentration showing <20 to <30% hemolysis in mouse RBC to MIC for fluconazole/ITC-resistant Candida albicans ATCC MYA-1003; format: toxicity; conditions: mouse red blood cells (RBC), read-out: Selectivity Index
[12] = Selectivity index, ratio of CC50 for human A549 cells to MIC for Candida parapsilosis ATCC 22019; format: toxicity; conditions: read-out: Selectivity Index
[13] = system: BEAS-2B; assay: Cytotoxicity against human BEAS2B cells after 24 hrs by resazurin based assay; format: cell-based
[14] = system: Aspergillus nidulans; assay: Antifungal activity against Aspergillus nidulans ATCC 38163 measured after 48 hrs by CLSI M38-A2 protocol based method; format: functional; conditions: ATCC 38163, 48 h
[15] = system: Candida albicans; assay: Antifungal activity against fluconazole/ITC-resistant Candida albicans ATCC MYA-1237 measured after 48 hrs by CLSI M27-A3 protocol based method; format: functional; conditions: ATCC MYA-1237, 48 h
[16] = system: Listeria monocytogenes; assay: Antibacterial activity against Listeria monocytogenes; format: functional, organism-based
[17] = system: Candida albicans; assay: Antifungal activity against fluconazole/ITC-susceptible Candida albicans ATCC MYA-2310 measured after 48 hrs by CLSI M27-A3 protocol based method; format: functional; conditions: ATCC MYA-2310, 48 h
[18] = Selectivity index, ratio of CC50 for human A549 cells to MIC for Aspergillus flavus ATCC MYA-3631; format: toxicity; conditions: read-out: Selectivity Index
[19] = system: Candida albicans; assay: Antibiofilm activity against fluconazole/ITC-resistant Candida albicans ATCC 10231 assessed as reduction in sessile growth after 24 hrs by XTT assay; format: functional; conditions: ATCC 10231, 24 h
[20] = Selectivity index, ratio of CC50 for human A549 cells to MIC for fluconazole/ITC-resistant Candida albicans ATCC 10231; format: toxicity; conditions: read-out: Selectivity Index
[21] = Selectivity index, ratio of compound concentration showing <20 to <30% hemolysis in mouse RBC to MIC for Candida krusei ATCC 6258; format: toxicity; conditions: mouse red blood cells (RBC), read-out: Selectivity Index

Sequence of Voltage-gated inwardly rectifying potassium channel KCNH2 (Q12809 whole entry): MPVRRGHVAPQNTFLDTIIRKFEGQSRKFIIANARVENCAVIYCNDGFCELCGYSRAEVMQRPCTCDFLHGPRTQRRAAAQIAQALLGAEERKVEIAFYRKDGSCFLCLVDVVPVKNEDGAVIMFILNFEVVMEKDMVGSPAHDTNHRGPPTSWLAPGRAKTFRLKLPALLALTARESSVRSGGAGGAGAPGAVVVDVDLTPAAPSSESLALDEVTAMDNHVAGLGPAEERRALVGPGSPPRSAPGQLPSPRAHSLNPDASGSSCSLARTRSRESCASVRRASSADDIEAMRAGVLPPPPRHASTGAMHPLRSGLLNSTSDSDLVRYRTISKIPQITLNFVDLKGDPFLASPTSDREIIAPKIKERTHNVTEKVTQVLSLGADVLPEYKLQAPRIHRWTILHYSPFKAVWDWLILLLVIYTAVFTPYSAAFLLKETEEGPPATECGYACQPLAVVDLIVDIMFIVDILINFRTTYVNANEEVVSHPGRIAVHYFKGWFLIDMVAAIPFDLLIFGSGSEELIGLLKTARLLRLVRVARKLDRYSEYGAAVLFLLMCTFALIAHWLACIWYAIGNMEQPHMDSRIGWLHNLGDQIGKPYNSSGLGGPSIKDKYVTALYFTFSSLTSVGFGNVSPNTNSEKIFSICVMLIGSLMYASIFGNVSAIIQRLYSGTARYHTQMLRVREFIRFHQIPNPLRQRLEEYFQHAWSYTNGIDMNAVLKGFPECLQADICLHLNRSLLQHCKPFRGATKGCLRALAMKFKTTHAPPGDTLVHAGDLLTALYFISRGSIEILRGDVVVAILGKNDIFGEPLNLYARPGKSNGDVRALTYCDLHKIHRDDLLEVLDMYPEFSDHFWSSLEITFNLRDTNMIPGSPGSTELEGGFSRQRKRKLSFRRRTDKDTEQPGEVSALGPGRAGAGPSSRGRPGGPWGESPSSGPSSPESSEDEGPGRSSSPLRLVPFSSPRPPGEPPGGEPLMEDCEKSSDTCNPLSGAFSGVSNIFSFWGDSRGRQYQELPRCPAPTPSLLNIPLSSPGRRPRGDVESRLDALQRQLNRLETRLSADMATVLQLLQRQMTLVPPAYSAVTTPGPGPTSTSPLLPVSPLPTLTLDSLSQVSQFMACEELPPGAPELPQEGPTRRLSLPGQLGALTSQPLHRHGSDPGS

C/C(=N\Nc1ccc(F)cc1)c1ccc(-c2ccc(/C(C)=N/Nc3ccc(F)cc3)cc2)cc1
selectivity ratio [1]: 16 | MIC [2]: 7.8 µg/mL (≈ 17.2 µM) | IC50 [3]: > 30 µM | Activity [4]: inactive | selectivity ratio [5]: 2.1 | MIC [6]: 3.9 µg/mL (≈ 8.58 µM) | Activity [7]: Active | selectivity ratio [8]: 1 to 32 | hemolysis at 1 h, 15.6 ug/ml ([9]; at 15.6 µg/mL): 7.4% | hemolysis at 1 h, 0.975 ug/ml [9]: 1.4% | selectivity ratio [10]: 8.5 | selectivity ratio [11]: 1 to 32 | selectivity ratio [12]: 1.1 | CC50 [13]: 10.7 µg/mL (≈ 23.5 µM) | MIC [14]: 7.8 µg/mL (≈ 17.2 µM) | MIC [15]: 7.8 µg/mL (≈ 17.2 µM) | Activity [16]: inactive | MIC [17]: 1.95 µg/mL (≈ 4.29 µM) | selectivity ratio [18]: 0.5 | MIC50 [19]: 8 µg/mL (≈ 17.6 µM) | MIC90 [19]: > 32 µg/mL | selectivity ratio [20]: 8.5 | selectivity ratio [21]: 1 to 32
